Test results reported in patent US4260605A, “Novel alkylated pregnanes, processes for their preparation and pharmaceutical compositions containing same” (Akzo N.V., priority 1979, dated 1981).

Tested on: dorsal shaved skin
Assay: Rat seven-day intracutaneous skin thinning test (skin thinning and systemic effects)
Assay type: in vivo, rat (male, strain CFHB)
Settings: for systemic effects: conclusion in words; for Final body weight / Combined adrenal weight / Thymus weight / Spleen weight / Treated skin weight: mean; for Final body weight: 8 mg intracutaneous (16×0.5 mg), autopsy seven days later, initial body weight 200±3 g, control 249; for Combined adrenal weight / Thymus weight / Spleen weight / Treated skin weight: 8 mg intracutaneous, seven days; for Combined adrenal weight: control 41.5; for Thymus weight: control 612; for Spleen weight: control 788; for Treated skin weight: 4×4 cm area of treated skin, control 1.630
Description: Male rats strain CFHB, initial body weight 200±3 g, were used in the experiment and divided in seven groups each containing 10 animals, six groups being used for testing the compounds a-f and the seventh group serving as controls.
Each anaesthetised animal in each group received 8 mg of the respective compound injected as 16×0.5 mg suspended in 0.05 ml of suspension fluid into a 4×4 cm area of dorsal shaved skin. […]
At autopsy seven days later the spleen, adrenals, thymus and body weight were recorded in addition to the 4×4 cm area of treated skin. Table B summarises the means of the results.

Structure (SMILES) | systemic effects | Final body weight [g] | Combined adrenal weight [mg] | Thymus weight [mg] | Spleen weight [mg] | Treated skin weight [g]
CCCCC(=O)O[C@]1(C(=O)CO)[C@@H](C)C[C@H]2[C@@H]3CCC4=CC(=O)C=C[C@]4(C)[C@@]3(F)[C@@H](O)C[C@@]21C [f, betamethasone 17valerate] | have systemic effects | 229 | 21.5 | 96 | 445 | 1.445
CCCC(=O)O[C@]1(C(=O)CO)CC[C@H]2[C@@H]3CCC4=CC(=O)CC[C@]4(C)[C@H]3[C@@H](O)C[C@@]21C [g, hydrocortisone 17n-butyrate] | have systemic effects | 227 | 34.7 | 96 | 503 | 1.410
CCCC(=O)O[C@]1(C(=O)CC)CC[C@H]2[C@@H]3CCC4=CC(=O)CC[C@]4(C)[C@H]3[C@@H](O)C[C@@]21C [b, 11β,17dihydroxy-21-methyl-Δ^4pregnene-3,20-dione 17n-butyrate] | – | 249 | 36.3 | 533 | 727 | 1.660
CC1(C)O[C@@H]2C[C@H]3[C@@H]4CCC5=CC(=O)C=C[C@]5(C)[C@@]4(F)[C@@H](O)C[C@]3(C)[C@]2(C(=O)CO)O1 [h, triamcinolone acetonide] | have systemic effects | 142 | 17.4 | 65 | 150 | 1.107
